Data taken from patent US20230090868A1, “ANTI-CD30 ANTIBODY-DRUG CONJUGATES AND THEIR USE FOR THE TREATMENT OF NON-HODGKIN LYMPHOMA” (Seagen Inc., priority 2020, published 2023).
Like-named read-outs stand apart in the source and are kept apart here.

Legend:
P-gp [1] = target: T1, P-gp (Homo sapiens, UniProt P08183); settings: in vitro; cited from earlier work
[2] = single 25 mg dose with a high-fat meal, healthy subjects; cited from earlier work
R/R DLBCL = settings: cited from earlier work
[3] = Phase I trial dose-escalation phase: maximum tolerated dose (MTD) and dose-limiting toxicities; assay type: in vivo, human; settings: lenalidomide in combination with BV; by mouth Days 1-21 of each 21-day cycle; rel/ref DLBCL patients
Text: The maximum tolerated dose (MTh) was defined as the dose level immediately below the dose level at which 2 patients of a cohort (of 2 to 6 patients) experienced dose-limiting toxicity during the first cycle. Dose escalations proceeded until the MTD was reached.
Hematologic dose limiting toxicity (DLT) was defined as any of the following that occured during the first cycle that were attributed as possibly, probably, or definitely related to the study treatment: • Grade 4 neutropenia >7 day duration • Grade 4 infection with grade 3 or 4 neutropenia (life-threatening sepsis) • Grade 4 thrombocytopenia associated with life-threatening bleeding or requiring more than 1 transfusion • Treatment delay >14 days due to hematologic toxicity
Non-hematologic DLT was defined as any possibly, probably, or definitely related grade 3 or grade 4 non-hematologic toxicity that occured during the first cycle with the following specific exceptions: • Grade 3 or 4 nausea, vomiting, or anorexia that returns to Grade 1 prior to the start of Cycle 2 • Grade 3 metabolic abnormalities (e.g., hyperglycemia) • Grade 3 fatigue
Dose escalations proceeded as follows after the occurrence of dose-limiting toxicity (DLT):
Dose escalation occurred after all patients in the cohort completed the first cycle according to the following scheme: […]

P-gp [4] = target: T1, P-gp; settings: controlled studies; cited from earlier work
[5] = cited from earlier work
CD30+ cell lines = settings: in vitro; cited from earlier work
[6] = test system: xenograft models of Hodgkin disease; settings: SCID mouse xenograft models of Hodgkin disease; cited from earlier work

T1 sequence (P08183 whole entry): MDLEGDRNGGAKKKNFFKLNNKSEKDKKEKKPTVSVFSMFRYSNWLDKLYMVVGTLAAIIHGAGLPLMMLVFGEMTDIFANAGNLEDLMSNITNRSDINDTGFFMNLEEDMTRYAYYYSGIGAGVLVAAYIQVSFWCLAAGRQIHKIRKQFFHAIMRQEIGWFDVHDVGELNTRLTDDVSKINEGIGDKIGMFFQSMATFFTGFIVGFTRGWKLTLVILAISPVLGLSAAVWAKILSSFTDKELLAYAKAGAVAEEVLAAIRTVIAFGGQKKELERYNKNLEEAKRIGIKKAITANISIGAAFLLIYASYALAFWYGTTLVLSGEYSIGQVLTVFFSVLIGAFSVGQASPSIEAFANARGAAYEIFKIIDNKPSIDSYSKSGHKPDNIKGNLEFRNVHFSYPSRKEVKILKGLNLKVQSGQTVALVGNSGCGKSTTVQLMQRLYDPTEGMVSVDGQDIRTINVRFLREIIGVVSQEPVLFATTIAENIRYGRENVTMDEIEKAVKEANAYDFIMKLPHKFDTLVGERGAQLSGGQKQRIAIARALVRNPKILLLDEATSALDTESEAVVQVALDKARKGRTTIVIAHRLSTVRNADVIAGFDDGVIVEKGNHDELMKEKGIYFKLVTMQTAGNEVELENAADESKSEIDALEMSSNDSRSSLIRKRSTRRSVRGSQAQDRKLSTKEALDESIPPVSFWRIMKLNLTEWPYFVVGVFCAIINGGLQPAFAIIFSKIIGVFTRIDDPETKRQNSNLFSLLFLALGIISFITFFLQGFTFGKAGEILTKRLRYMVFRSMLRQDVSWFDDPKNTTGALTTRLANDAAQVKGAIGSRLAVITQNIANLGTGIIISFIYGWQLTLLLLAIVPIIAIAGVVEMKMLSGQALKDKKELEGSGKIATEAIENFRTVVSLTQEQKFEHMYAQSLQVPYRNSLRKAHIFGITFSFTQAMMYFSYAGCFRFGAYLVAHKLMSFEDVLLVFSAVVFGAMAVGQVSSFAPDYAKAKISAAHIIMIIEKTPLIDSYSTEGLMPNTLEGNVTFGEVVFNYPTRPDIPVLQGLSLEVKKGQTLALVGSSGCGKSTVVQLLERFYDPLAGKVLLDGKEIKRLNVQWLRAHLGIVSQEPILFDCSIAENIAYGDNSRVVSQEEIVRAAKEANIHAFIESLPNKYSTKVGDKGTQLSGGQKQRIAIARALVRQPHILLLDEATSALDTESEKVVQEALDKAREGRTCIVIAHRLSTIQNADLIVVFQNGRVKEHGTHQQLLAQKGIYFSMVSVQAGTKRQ

Row | Compound | substrate of P-gp (P-gp [1]) | decrease in area under the concentration-time curve [2] | decrease in maximum plasma concentration (Cmax) [2] | median progression-free survival (PFS) (R/R DLBCL; GCB subjects, P=0.550) | median progression-free survival (PFS) (R/R DLBCL; all subjects with R/R DLBCL, P=0.041) | median progression-free survival (PFS) (R/R DLBCL; non-germinal-center B-cell-like (non-GCB) subjects, P=0.021) | objective response rate (ORR) (R/R DLBCL; subjects with R/R DLBCL) | maximum tolerated dose (MTD) [3] | PK interactions with P-gp substrates/inhibitors (P-gp [4]) | drug accumulation ([5]; multiple doses at the recommended dosage) | time post-dose at which maximum plasma concentrations occurred ([5]; single and multiple doses, subjects with MM or MDS, (approximately 0.5 to 6 hours)) | growth arrest of CD30+ cell lines (CD30+ cell lines) | antitumor activity [6]
1 | Nc1cccc2c1CN(C1CCC(=O)NC1=O)C2=O (racemic) [lenalidomide, (RS)-3-(4-Amino-1-oxo-1,3-dihydro-2H-isoindol-2-yl)piperidine-2,6-dione] | weak substrate | ~20% | ~50% | 10.1 weeks | 13.6 weeks | 15.1 weeks | 27.5% | 20 mg | does not have clinically significant PK interactions | does not result in drug accumulation | 1 h |  | 
2 | cAC10: chimeric IgG1 monoclonal antibody that specifically binds CD30 |  |  |  |  |  |  |  |  |  |  |  | induces growth arrest | pronounced antitumor activity
